# Source: patent publication US20240343819A1, “METHODS OF TREATING MULTIPLE MYELOMA” (Seagen Inc., priority 2021, published 2024)
# “And” between values parts separate entries of the source, which are not always exact repeats. Equal values may be shown once.
# How the values were obtained:
# Molp-8 MM target cells = experiment: ADCC 51Cr release assay with donor NK cells; assay type: cell-based; settings: SEA-BCMA titrations, 0.2 μM Nirogacestat vs without, NK:target 10:1, 4h, FcγRIII V/V donor
# Description: Whether the enhanced FcγRIII signaling translated to increased lysis of MM target cells by SEA-BCMA was determined. Molp-8 MM target cells were incubated with and without 0.2 μM Nirogacestat (purchased from SelleckChem) for 24 hrs. Cells were then Na2 [^51Cr] O4 labeled and added to titrations of SEA-BCMA, or isotype antibody control. Effector cells, NK cells enriched from normal donor PBMC, were added at an effector-to-target cell ratio of 10:1 (50,000:5000). Donor NK cells were of the high affinity FcγRIII V/V genotype. The combination of antibodies, NK cells and target cells were incubated for 4h at 37° C. with and without Nirogacestat. The radioactivity released into the culture supernatant of lysed target cells was then measured and the percent specific cell lysis calculated. […] This is the primary of mechanism of action of SEA-BCMA and translates to specific enhanced anti-MM lysis. It is expected that this will translate to improvements in anti-MM activity in the clinic when SEA-BCMA is combined with GSIs.
# Multiple myeloma cells [1] = experiment: BCMA expression after nirogacestat incubation; assay type: cell-based; settings: 0.2 μM nirogacestat, 24 hours, vs without
# Excerpt: (§1) These pre-clinical data supported the combination of SEA-BCMA with nirogacestat in clinical studies.
# Multiple myeloma cells [2] = experiment: ADCC with NK effector cells enriched from normal donor PBMC; assay type: cell-based; settings: nirogacestat treated multiple myeloma cells combined with NK effector cells
# Excerpt: as §1
# [3] = tested on: BCMA-expressing NCI-H929 cells; experiment: NF-κB p65 activity ELISA of nuclear extract (TransAM NFκB Chemi p65); assay type: cell-based
# Description: The secondary mechanism of action of SEA-BCMA is to block BCMA proliferative cell signaling. Increased BCMA from GSI treatment is expected to induce increased BCMA signaling. Therefore, the block of this enhanced signaling by SEA-BCMA was tested. BCMA-expressing NCI-H929 cells were serum-starved with and without 0.2 μM Nirogacestat (purchased from SelleckChem) for 16 hrs. Cells were then bound with and without 20 μg/mL SEA-BCMA and incubated with and without 1 μg/ml recombinant human APRIL (R&D Systems) for 20 minutes at 37° C. in the presence or absence of 0.2 μM Nirogacestat. 1 μg of nuclear extract was assayed in duplicate for NF-κB p65 activity by ELISA (TransAM NFκB Chemi p65, Active Motif).
# patients = settings: cited from earlier work
# [4] = 100 mg BID dose; cited from earlier work
# U266 = experiment: BCMA expression by flow cytometry after Nirogacestat incubation; assay type: cell-based; settings: 0.2 μM Nirogacestat, 24 hrs
# Molp-8 cells [5] = experiment: BCMA expression by flow cytometry after GSI incubation; assay type: cell-based; settings: 1 μM DAPT, 24 hrs, vs without
# NCI-H929 cells [6] = experiment: as above; assay type: cell-based; settings: 1 μM DAPT, 24 hrs, vs without
# Molp-8 cells [7] = experiment: FcγRIII signaling surrogate assay (Promega ADCC reporter bioassay, CD16A-Jurkat effector cells); assay type: cell-based; settings: antibody dose titrations +/- GSI (DAPT), 6:1 effector-to-target ratio, overnight
# Description: (§2) NCI-H929 or Molp-8 MM target cells were incubated with and without 1 μM DAPT for 24 hrs. […] FcγRIII signaling was determined using a surrogate assay as manufacturer describes (Promega ADCC reporter bioassay cat #G9302). Cells were bound with antibody dose titrations+/−GSI for 30 minutes at 37° C. CD16A-Jurkat effector cells were then added with a 6:1 effector-to-target cell ratio. After an overnight incubation, the assay was developed with Bio-Glo and relative luminescence units (RLU) were measured on an Envision plate reader. […] Enhanced signaling is the first step in the primary mechanism of action of SEA-BCMA. This signaling can translate to increased anti-MM cell lysis through ADCC.
# NCI-H929 cells [8] = experiment: as above; assay type: cell-based; settings: antibody dose titrations +/- GSI (DAPT), 6:1 effector-to-target ratio, overnight
# Description: as §2
# FcγRIII = FcγRIII (Homo sapiens, UniProt P08637); experiment: FcγRIII binding affinity versus fucosylated anti-BCMA antibodies; settings: in comparison to fucosylated anti-BCMA antibodies
# Chain of FcγRIII (P08637 17-254): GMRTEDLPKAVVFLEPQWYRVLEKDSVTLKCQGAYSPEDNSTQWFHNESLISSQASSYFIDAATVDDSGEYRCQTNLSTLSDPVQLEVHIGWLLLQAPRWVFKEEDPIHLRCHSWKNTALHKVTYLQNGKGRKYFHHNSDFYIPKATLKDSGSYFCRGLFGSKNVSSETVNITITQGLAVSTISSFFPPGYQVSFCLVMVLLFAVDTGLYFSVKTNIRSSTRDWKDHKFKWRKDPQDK
# [9] = patients receiving nirogacestat
# Description for patients with RRMM: This study evaluated the safety and antitumor activity of SEA-BCMA in patients with RRMM.
# The monotherapy dose-escalation portion of the trial was conducted in approximately 25 patients.
# Enrollment in this study occurred on a cohort-by-cohort basis. Multiple cohorts were treated at each dose level, with a maximum of 4 patients treated per cohort. Decisions on dose escalation and subsequent cohort size were made in consultation with the safety monitoring committee (SMC) after completion of each cohort. […] In addition, as a precaution, for the first 2 patients in the study there was a 72-hour observation period before the next patient can be dosed. At dose levels above Dose Level 1, a 24-hour observation period was required after the first patient received their first dose of SEA-BCMA, prior to dosing subsequent patients at that dose level. […] Patients who were considered not evaluable for DLT during Cycle 1 were replaced. […] The MTD or optimal dose was estimated based on data from all patients across all evaluated doses.
# SEA-BCMA was initially administered once every 2 weeks (q2wk) in 4-week cycles at the planned doses shown in Table 2; a dosing interval of every 4 weeks (q4wk) was explored.
# To further characterize the safety and antitumor activity of SEA-BCMA, an expansion cohort of up to approximately 40 patients were enrolled.
# The DLT-evaluation period was the first cycle of treatment. […] In the event of a Grade 3 IRR in ≥20% of patients (i.e., 2 or more in the first 10 patients), all subsequent patients will require premedication and/or modification of infusion approach per the recommendation of the SMC.
compound,measurement,setting,value
"CCC[C@H](N[C@H]1CCc2cc(F)cc(F)c2C1)C(=O)Nc1cn(C(C)(C)CNCC(C)(C)C)cn1 [nirogacestat, (S)-2-(((S)-6,8-difluoro-1,2,3,4-tetrahydronaphthalen-2-yl)amino)-N-(1-(2-methyl-1-(neopentylamino)propan-2-yl)-1H-imidazol-4-yl)pentanamide]",ADCC (percent specific cell lysis),Molp-8 MM target cells,Increased ADCC
same,BCMA expression,Multiple myeloma cells [1],increased BCMA expression
same,ADCC,Multiple myeloma cells [2],increased ADCC
same,NF-κB p65 signaling (RLU),"[3]; 0.2 μM Nirogacestat 16 hrs serum-starved, +/- 1 μg/ml APRIL 20 minutes",increased NF-κB signaling
same,Events of diarrhea,patients; [9],commonly reported
same,Events of skin rash,patients; [9],reported
same,Follicular cysts,"patients; phase 2 study in desmoid patients conducted by the NCI (O'Sullivan Coyne, 2018)",observed
same,Cmin at steady-state,[4],232 ng/mL and 471 nM
same,BCMA expression,U266,increased BCMA expression
C[C@H](NC(=O)Cc1cc(F)cc(F)c1)C(=O)N[C@H](C(=O)OC(C)(C)C)c1ccccc1 [DAPT],BCMA expression,Molp-8 cells [5],increased BCMA expression
same,BCMA expression,NCI-H929 cells [6],increased BCMA expression
same,FcγRIII signaling,Molp-8 cells [7],increased FcγRIII signaling
same,FcγRIII signaling,NCI-H929 cells [8],increased FcγRIII signaling
"SEA-BCMA: non-fucosylated monoclonal anti-BCMA antibody, heavy chain SEQ ID NO: 13, light chain SEQ ID NO: 15",Block of NF-κB signaling increased by Nirogacestat,"[3]; 20 μg/mL SEA-BCMA, 0.2 μM Nirogacestat, +/- 1 μg/ml APRIL",partially blocked
same,Delayed-onset infusion-related reactions (IRRs),patients with RRMM; dose escalation cohort,no instances
same,Safety profile at high doses,"patients with RRMM; high doses, e.g. 800 mg or 1600 mg per dose, initial results",tolerable safety profile
same,MTD in dose escalation,"patients with RRMM; human, in vivo",without exceeding MTD
same,FcγRIII binding affinity,FcγRIII,enhanced
